Patent US12180215B2, “Substituted pyrrolo[3,4-d]imidazoles as JAK inhibitors” (HENAN MEDINNO PHARMACEUTICAL TECHNOLOGY CO., LTD., priority 2019, dated 2024)

What was measured:
[1] = target: T1, JAK3 (Homo sapiens, UniProt P52333); experiment: JAK3 kinase ADP-Glo assay (Example 59); type: biochemical; set-up: purchased Invitrogen PV3855; settings: for Hillslope, JAK3 Experiment: slope of the nonlinear IC50 fit; for IC50: JAK3 (Invitrogen) 0.5 nM, ATP 10 μM, Poly (4:1 Glu, Tyr) 0.03 mg/mL, 25° C. 60 min, read-out: IC50 (nM), JAK3 Experiment
Target sequence in this assay (P52333 781-1124 limits assumed): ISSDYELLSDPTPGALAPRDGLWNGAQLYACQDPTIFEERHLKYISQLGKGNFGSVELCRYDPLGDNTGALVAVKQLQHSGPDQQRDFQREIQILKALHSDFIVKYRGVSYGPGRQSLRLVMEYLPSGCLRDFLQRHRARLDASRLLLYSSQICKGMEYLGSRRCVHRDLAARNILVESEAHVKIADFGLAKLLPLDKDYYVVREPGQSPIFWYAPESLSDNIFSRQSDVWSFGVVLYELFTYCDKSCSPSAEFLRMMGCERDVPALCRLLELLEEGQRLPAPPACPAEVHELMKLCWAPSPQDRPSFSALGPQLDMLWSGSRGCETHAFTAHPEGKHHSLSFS

[2] = target: T2, JAK1 (Homo sapiens, UniProt P23458); experiment: JAK1 kinase ADP-Glo assay (Example 59); type: biochemical; set-up: purchased Invitrogen PV4774; settings: for Hillslope, JAK1 Experiment: slope of the nonlinear IC50 fit; for IC50: JAK1 (Invitrogen) 4 nM, ATP 20 μM, IRS1 0.05 mg/mL, 25° C. 60 min, read-out: IC50 (nM), JAK1 Experiment
Target sequence in this assay (P23458 866-1154 limits assumed): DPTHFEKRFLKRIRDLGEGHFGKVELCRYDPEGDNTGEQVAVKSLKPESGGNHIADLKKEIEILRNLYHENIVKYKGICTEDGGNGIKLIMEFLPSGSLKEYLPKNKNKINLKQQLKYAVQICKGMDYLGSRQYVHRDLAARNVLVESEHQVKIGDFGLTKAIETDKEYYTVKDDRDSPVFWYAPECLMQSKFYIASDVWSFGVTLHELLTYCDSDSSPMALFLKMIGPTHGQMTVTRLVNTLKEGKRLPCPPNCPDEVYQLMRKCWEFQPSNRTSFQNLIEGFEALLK

[3] = target: T3, JAK2 (Homo sapiens, UniProt O60674); experiment: JAK2 kinase ADP-Glo assay (Example 59); settings: for Hillslope, JAK2 Experiment: Example 59, slope of the nonlinear IC50 fit
Target sequence in this assay (O60674 808-1132 limits assumed): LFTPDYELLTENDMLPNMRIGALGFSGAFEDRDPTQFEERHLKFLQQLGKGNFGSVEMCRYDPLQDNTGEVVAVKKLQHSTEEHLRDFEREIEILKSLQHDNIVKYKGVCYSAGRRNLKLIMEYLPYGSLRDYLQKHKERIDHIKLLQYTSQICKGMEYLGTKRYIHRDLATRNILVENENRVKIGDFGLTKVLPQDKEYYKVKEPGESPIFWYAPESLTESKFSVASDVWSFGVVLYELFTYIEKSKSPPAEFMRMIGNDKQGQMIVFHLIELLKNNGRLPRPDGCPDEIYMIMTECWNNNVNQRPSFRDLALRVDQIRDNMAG

[4] = target: T4, TYK2 (Homo sapiens, UniProt P29597); experiment: TYK2 kinase ADP-Glo assay (Example 59); type: biochemical; settings: for Hillslope, TYK2 Experiment: slope of the nonlinear IC50 fit; for IC50: TYK2 (Invitrogen) 4 nM, ATP 10 μM, IRS1 0.03 mg/mL, 25° C. 60 min, read-out: IC50 (nM), TYK2 Experiment
T4 construct: purchased Invitrogen PV4790
T4 sequence (P29597 833-1187 limits assumed): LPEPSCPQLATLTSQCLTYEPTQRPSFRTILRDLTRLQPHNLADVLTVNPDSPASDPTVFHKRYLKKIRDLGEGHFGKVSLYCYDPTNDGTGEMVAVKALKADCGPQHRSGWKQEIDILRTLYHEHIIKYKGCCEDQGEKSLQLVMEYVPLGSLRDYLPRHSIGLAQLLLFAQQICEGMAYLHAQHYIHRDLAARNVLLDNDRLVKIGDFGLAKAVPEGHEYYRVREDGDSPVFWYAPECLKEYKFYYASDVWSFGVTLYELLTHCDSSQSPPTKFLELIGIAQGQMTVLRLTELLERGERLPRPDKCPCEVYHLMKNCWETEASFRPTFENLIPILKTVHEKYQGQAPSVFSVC

[5] = target: T2, JAK1; experiment: JAK1 kinase ADP-Glo assay (Example 60)
Target sequence in this assay (P23458 850-1154 limits assumed): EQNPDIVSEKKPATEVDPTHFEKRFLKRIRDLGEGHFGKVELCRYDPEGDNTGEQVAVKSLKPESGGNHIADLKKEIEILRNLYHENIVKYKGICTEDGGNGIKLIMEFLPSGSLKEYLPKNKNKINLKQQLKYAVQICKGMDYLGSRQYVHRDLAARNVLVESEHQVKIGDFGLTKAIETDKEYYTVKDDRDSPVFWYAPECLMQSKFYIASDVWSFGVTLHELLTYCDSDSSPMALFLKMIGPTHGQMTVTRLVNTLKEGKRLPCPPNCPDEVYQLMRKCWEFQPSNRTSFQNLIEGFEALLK

[6] = target: T5, TYK2 (Homo sapiens, UniProt P29597); experiment: TYK2 kinase ADP-Glo assay (Example 60)
T5 sequence (P29597 871-1187 limits assumed): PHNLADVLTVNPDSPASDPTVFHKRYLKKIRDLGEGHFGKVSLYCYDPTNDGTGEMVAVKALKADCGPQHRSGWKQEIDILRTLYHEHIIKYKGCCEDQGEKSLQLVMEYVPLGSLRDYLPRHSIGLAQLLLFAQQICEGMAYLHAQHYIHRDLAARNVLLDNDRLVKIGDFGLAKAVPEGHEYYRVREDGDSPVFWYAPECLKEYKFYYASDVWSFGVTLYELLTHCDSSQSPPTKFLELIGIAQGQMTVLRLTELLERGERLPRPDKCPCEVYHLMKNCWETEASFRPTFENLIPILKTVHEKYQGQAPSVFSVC

[7] = target: T1, JAK3; experiment: JAK3 kinase ADP-Glo assay (Example 60)
Target sequence in this assay (P52333 795-1124 limits assumed): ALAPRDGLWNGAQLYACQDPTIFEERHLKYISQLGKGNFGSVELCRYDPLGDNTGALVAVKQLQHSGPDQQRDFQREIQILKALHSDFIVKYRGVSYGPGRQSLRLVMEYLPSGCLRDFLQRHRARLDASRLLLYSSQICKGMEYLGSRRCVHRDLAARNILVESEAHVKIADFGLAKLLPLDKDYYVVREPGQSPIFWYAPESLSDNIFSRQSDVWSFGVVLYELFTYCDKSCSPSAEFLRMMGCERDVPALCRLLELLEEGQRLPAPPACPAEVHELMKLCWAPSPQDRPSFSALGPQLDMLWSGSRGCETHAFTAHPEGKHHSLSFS

[8] = target: T3, JAK2; experiment: JAK2 kinase ADP-Glo assay (Example 60)
Target sequence in this assay (O60674 826-1132 limits assumed): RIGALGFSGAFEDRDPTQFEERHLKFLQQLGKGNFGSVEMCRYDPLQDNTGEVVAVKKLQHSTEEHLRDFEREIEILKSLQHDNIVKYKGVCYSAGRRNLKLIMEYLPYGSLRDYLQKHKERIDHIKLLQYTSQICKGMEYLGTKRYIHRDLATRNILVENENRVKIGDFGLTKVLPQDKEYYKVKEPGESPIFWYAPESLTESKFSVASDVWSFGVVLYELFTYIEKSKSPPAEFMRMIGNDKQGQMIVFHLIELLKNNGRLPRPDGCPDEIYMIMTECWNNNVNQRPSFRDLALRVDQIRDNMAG

IC50 [1] [nM] | IC50 [2] [nM] | IC50 [3] [nM] | IC50 [4] [nM] | IC50 [5] [nM] | IC50 [6] [nM] | IC50 [7] [nM] | IC50 [8] [nM] | Structure (SMILES) | other results
0.16 | 0.125 | 0.279 | 0.318 |  |  |  |  | CCc1cc(O)c(F)cc1-c1ccc2c(-c3nc4c([nH]3)CN(C(=O)c3cnn(C)c3)C4)n[nH]c2c1 [MDI-202, (2-(6-(2-ethyl-5-fluoro-4-hydroxyphenyl)-1H-indazol-3-yl)-4,6-dihydropyrrolo[3,4-d]imidazol-5(1H)-yl)(1-methyl-1H-pyrazol-4-yl)ketone] | 
 |  |  |  | 0.144 | 1.33 | 0.406 | 0.818 | CCc1cc(O)c(F)cc1-c1ccc2c(-c3nc4c([nH]3)CN(C(=O)NC3CCOC3)C4)n[nH]c2c1 (centres unmarked) [MDI-251, 2-(6-(2-ethyl-5-fluoro-4-hydroxyphenyl)-1H-indazol-3-yl)-N-(tetrahydrofuran-3-yl)-4,6-dihydropyrrolo[3,4-d]imidazol-5(1H)-carboxamide] | 
 |  |  |  | 1.8 | 22 | 2.2 | 2.6 | CCc1cc(O)c(F)cc1-c1ccc2c(-c3nc4c([nH]3)CN(C(=O)OC)C4)n[nH]c2c1 [MDI-252, Methyl 2-(6-(2-ethyl-5-fluoro-4-hydroxyphenyl)-1H-indazol-3-yl)-4,6-dihydropyrrolo[3,4-d]imidazol-5(1H)-carboxylate] | 
 |  |  |  | 2.9 | 31 | 1.5 | 1.6 | CCOC(=O)N1Cc2nc(-c3n[nH]c4cc(-c5cc(F)c(O)cc5CC)ccc34)[nH]c2C1 [MDI-253, Ethyl 2-(6-(2-ethyl-5-fluoro-4-hydroxyphenyl)-1H-indazol-3-yl)-4,6-dihydropyrrolo[3,4-d]imidazol-5(1H)-carboxylate] | 
 |  |  |  | 0.7 | 6.14 | 2.71 | 3.06 | CCc1cc(O)c(F)cc1-c1ccc2c(-c3nc4c([nH]3)CN(C(=O)CC#N)C4)n[nH]c2c1 [MDI-256, 3-(2-(6-(2-ethyl-5-fluoro-4-hydroxyphenyl)-1H-indazol-3-yl)-4,6-dihydropyrrolo[3,4-d]imidazol-5(1H)-yl)-3-oxypropionitrile] | 
 |  |  |  | 0.185 | 0.684 | 0.381 | 0.6 | CCc1cc(O)c(F)cc1-c1ccc2c(-c3nc4c([nH]3)CN(C(=O)N(C)C)C4)n[nH]c2c1 [MDI-257, 2-(6-(2-ethyl-5-fluoro-4-hydroxyphenyl)-1H-indazol-3-yl)-N,N-dimethyl-4,6-dihydropyrrolo[3,4-d]imidazol-5(1H)-carboxamide] | 
 |  |  |  | 0.939 | 6.27 | 2.36 | 3.31 | CCc1cc(O)c(F)cc1-c1ccc2c(-c3nc4c([nH]3)CN(C(=O)NCCC#N)C4)n[nH]c2c1 [MDI-258, N-(2-cyanoethyl)-2-(6-(2-ethyl-5-fluoro-4-hydroxyphenyl)-1H-indazol-3-yl)-4,6-dihydropyrrolo[3,4-d]imidazole-5(1H)-carboxamide] | 
 |  |  |  | 0.659 | 2.94 | 1.29 | 1.3 | CCc1cc(O)c(F)cc1-c1ccc2c(-c3nc4c([nH]3)CN(C(=O)NC3CC3)C4)n[nH]c2c1 [MDI-259, N-cyclopropyl-2-(6-(2-ethyl-5-fluoro-4-hydroxyphenyl)-1H-indazol-3-yl)-4,6-dihydropyrrolo[3,4-d]imidazol-5(1H)-carboxamide] | 
 |  |  |  | 2.28 | 8.98 | 2.47 | 2.99 | CCc1cc(O)c(F)cc1-c1ccc2c(-c3nc4c([nH]3)CN(C(=O)NC3CCC3)C4)n[nH]c2c1 [MDI-260, N-cyclobutyl-2-(6-(2-ethyl-5-fluoro-4-hydroxyphenyl)-1H-indazol-3-yl)-4,6-dihydropyrrolo[3,4-d]imidazol-5(1H)-carboxamide] | 
 |  |  |  | 0.319 | 2.59 | 1.22 | 1.54 | CCc1cc(O)c(F)cc1-c1ccc2c(-c3nc4c([nH]3)CN(C(=O)[C@@H]3CCCN3)C4)n[nH]c2c1 [MDI-262, (S)-6-(2-ethyl-5-fluoro-4-hydroxyphenyl)-3-(5-prolyl-1,4,5,6-tetrahydropyrrolo[3,4-d]imidazol-2-yl)-1H-indazol] | 
 |  |  |  | 0.12 | 0.717 | 0.458 | 0.717 | CCc1cc(O)c(F)cc1-c1ccc2c(-c3nc4c([nH]3)CN(C(=O)[C@H]3CCCN3)C4)n[nH]c2c1 [MDI-263, (R)-6-(2-ethyl-5-fluoro-4-hydroxyphenyl)-3-(5-prolyl-1,4,5,6-tetrahydropyrrolo[3,4-d]imidazol-2-yl)-1H-indazol] | 

Continued, compound first:

Structure (SMILES) | IC50 [1] [nM] | IC50 [2] [nM] | IC50 [3] [nM] | IC50 [4] [nM] | IC50 [5] [nM] | IC50 [6] [nM] | IC50 [7] [nM] | IC50 [8] [nM] | other results
O=C(Nc1nc2cccc(-c3ccc(CN4CCS(=O)(=O)CC4)cc3)n2n1)C1CC1 [Filgotinib, reference compound] |  |  |  |  |  |  |  |  | Hillslope, JAK3 Experiment [1]: 1.318; Hillslope, JAK1 Experiment [2]: 1.067; Hillslope, JAK2 Experiment [3]: 1.142; Hillslope, TYK2 Experiment [4]: 1.037
CCc1cc(O)c(F)cc1-c1ccc2c(-c3nc4c([nH]3)CN(C(=O)c3cnc(N5CCCCC5)cn3)C4)n[nH]c2c1 [MDI-2, (2-(6-(2-ethyl-5-fluoro-4-hydroxyphenyl)-1H-indazol-3-yl)-4,6-dihydropyrrolo[3,4-d]imidazol-5(1H)-yl)(5-(piperidin-1-yl)pyrazin-2-yl)ketone] | 0.765 | 0.806 | 0.772 | 1.63 |  |  |  |  | 
CCc1cc(O)c(F)cc1-c1ccc2c(-c3nc4c([nH]3)CN(C(=O)c3cnc(N5CCOCC5)cn3)C4)n[nH]c2c1 [MDI-201, (2-(6-(2-ethyl-5-fluoro-4-hydroxyphenyl)-1H-indazol-3-yl)-4,6-dihydropyrrolo[3,4-d]imidazol-5(1H)-yl)(5-morpholinepyrazin-2-yl)ketone] | 0.187 | 0.138 | 0.217 | 0.281 |  |  |  |  | Hillslope, JAK3 Experiment [1]: 1.989; Hillslope, JAK1 Experiment [2]: 3.487; Hillslope, JAK2 Experiment [3]: 1.633; Hillslope, TYK2 Experiment [4]: 1.411
CCc1cc(O)c(F)cc1-c1ccc2c(-c3nc4c([nH]3)CN(C(=O)C3CCN(C)CC3)C4)n[nH]c2c1 [MDI-203, (2-(6-(2-ethyl-5-fluoro-4-hydroxyphenyl)-1H-indazol-3-yl)pyrrolo[3,4-d]imidazol-5(1H, 4H,6H)-yl)(1-methylpiperidin-4-yl)ketone] | 0.212 | 0.16 | 0.208 | 0.328 |  |  |  |  | 
CCc1cc(O)c(F)cc1-c1ccc2c(-c3nc4c([nH]3)CN(C(=O)c3cnc(N5CCN(C)CC5)cn3)C4)n[nH]c2c1 [MDI-204, (2-(6-(2-ethyl-5-fluoro-4-hydroxyphenyl)-1H-indazol-3-yl)pyrrolo[3,4-d]imidazol-5(1H,4H,6H)-yl)(5-(4-methylpiperazin-1-yl)pyrazin-2-yl)ketone] | 0.238 | 0.152 | 0.176 | 0.2 |  |  |  |  | 
CCc1cc(O)ccc1-c1ccc2c(-c3nc4c([nH]3)CN(C(=O)c3cnc(N5CCN(C)CC5)cn3)C4)n[nH]c2c1 [MDI-205, (2-(6-(2-ethyl-4-hydroxyphenyl)-1H-indazol-3-yl)pyrrolo[3,4-d]imidazol-5(1H,4H,6H)-yl)(5-(4-methylpiperazin-1-yl)pyrazin-2-yl)ketone] | 0.178 | 0.121 | 0.158 | 0.194 |  |  |  |  | 
CCc1cc(O)c(F)cc1-c1ccc2c(-c3nc4c([nH]3)CN(C3CCC(O)CC3)C4)n[nH]c2c1 (centres unmarked) [MDI-217, 5-ethyl-2-fluoro-4-(3-(5-(4-hydroxylcyclohexyl)-1,4,5,6-tetrahydropyrrolo[3,4-d]imidazol-2-yl)-1H-indazol-6-yl)phenol] | 0.137 | 0.122 |  | 0.391 |  |  |  |  | 
CCc1cc(O)c(F)cc1-c1ccc2c(-c3nc4c([nH]3)CN(C(=O)N3CCC(C#N)C3)C4)n[nH]c2c1 (centres unmarked) [MDI-250, 1-(2-(6-(2-ethyl-5-fluoro-4-hydroxyphenyl)-1H-indazol-3-yl)-1,4,5,6-tetrahydropyrrolo[3,4-d]imidazol-5-carbonyl)pyrrolidin-3-nitrile] |  |  |  |  | 0.395 | 0.993 | 0.497 | 0.974 | 
CCc1cc(O)c(F)cc1-c1ccc2c(-c3nc4c([nH]3)CN(C(=O)N3CC5(CNC5)C3)C4)n[nH]c2c1 [MDI-261, (2-(6-(2-ethyl-5-fluoro-4-hydroxyphenyl)-1H-indazol-3-yl)-4,6-dihydropyrrolo[3,4-d]imidazol-5(1H)-yl)(2,6-diazaspiro[3.3]heptan-2-yl)ketone] |  |  |  |  | 0.154 | 1.16 | 0.473 | 0.703 | 
